Experimental data from ChEMBL document CHEMBL1201862, “PubChem BioAssay data set” (2004).
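Five concentrations, 48 hours, 96-well plates. Here, GI50 denotes the concentration required for 50% inhibition of growth.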 Active and inactive are the calls of the source. Rule as the data show it: active = GI50 up to about 1.1 µM and inactive = higher.

Experiments:
Assay in all cases: NCI-60 cell line screen, 48 h
786-0 = test system: 786-0
A498 = test system: A498
CCRF-CEM = test system: CCRF-CEM
COLO 205 = test system: COLO 205
HL-60 = test system: HL-60
HOP-62 = test system: HOP-62
HT-29 = test system: HT-29
IGROV-1 = test system: IGROV-1
NCI-H460 = test system: NCI-H460
NCI-H522 = test system: NCI-H522
RPMI-8226 = test system: RPMI-8226
SK-MEL-2 = test system: SK-MEL-2
SK-OV-3 = test system: SK-OV-3
SNB-19 = test system: SNB-19
SW-620 = test system: SW-620
TK-10 = test system: TK-10
UACC-257 = test system: UACC-257

SMILES	GI50 (786-0)	GI50 (A498)	GI50 (CCRF-CEM)	GI50 (COLO 205)	GI50 (HL-60)	GI50 (HOP-62)	GI50 (HT-29)	GI50 (IGROV-1)	GI50 (NCI-H460)	GI50 (NCI-H522)	GI50 (RPMI-8226)	GI50 (SK-MEL-2)	GI50 (SK-OV-3)	GI50 (SNB-19)	GI50 (SW-620)	GI50 (TK-10)	GI50 (UACC-257)
COc1cccc(NC(=O)C(=O)C2C=CCS2(=O)=O)c1 (stereo not given)	> 100 µM (inactive)	> 100 µM (inactive)	> 100 µM (inactive)	> 100 µM (inactive)	> 100 µM (inactive)	> 100 µM (inactive)	> 100 µM (inactive)	> 100 µM (inactive)	> 100 µM (inactive)	> 100 µM (inactive)	> 100 µM (inactive)	> 100 µM (inactive)	> 100 µM (inactive)	> 100 µM (inactive)	> 100 µM (inactive)	> 100 µM (inactive)	> 100 µM (inactive)
C#CCNC(=O)NCCCCC(NC(=O)OCc1ccccc1)C(=O)OCc1ccccc1 (stereo not given)	> 58.1 µM (inactive)	> 100 µM (inactive)	18.5 µM (inactive)	17.7 µM (inactive)	18 µM (inactive)		75.3 µM (inactive)	> 100 µM (inactive)	52.2 µM (inactive)	22.3 µM (inactive)	21.2 µM (inactive)	> 96.2 µM (inactive)	> 100 µM (inactive)	> 100 µM (inactive)	72.8 µM (inactive)	> 100 µM (inactive)	33.2 µM (inactive)
O=C(CCc1nnc(S)[nH]1)Nc1cc(Cl)c(Cl)cc1Cl	> 100 µM (inactive)	> 100 µM (inactive)	> 100 µM (inactive)	> 100 µM (inactive)	> 100 µM (inactive)	> 100 µM (inactive)	> 100 µM (inactive)	> 100 µM (inactive)	> 100 µM (inactive)	> 100 µM (inactive)	> 100 µM (inactive)	> 100 µM (inactive)	> 100 µM (inactive)	> 100 µM (inactive)	> 100 µM (inactive)	> 100 µM (inactive)	> 100 µM (inactive)
O=C(Nc1cc(Cl)c(Cl)cc1Cl)C(=O)C1C(=O)NC(=S)NC1=O	> 100 µM (inactive)	> 100 µM (inactive)	> 100 µM (inactive)	> 100 µM (inactive)	> 100 µM (inactive)	> 100 µM (inactive)	> 100 µM (inactive)	> 100 µM (inactive)	> 100 µM (inactive)	> 100 µM (inactive)	> 100 µM (inactive)	> 100 µM (inactive)	> 100 µM (inactive)	> 100 µM (inactive)	> 100 µM (inactive)	> 100 µM (inactive)	> 100 µM (inactive)
[N-]=[N+]=N/C1=C/CCCCC(=O)C1	> 100 µM (inactive)		> 100 µM (inactive)	> 100 µM (inactive)	> 100 µM (inactive)	> 100 µM (inactive)	> 100 µM (inactive)	> 100 µM (inactive)	> 100 µM (inactive)	71.1 µM (inactive)	> 100 µM (inactive)	> 100 µM (inactive)	> 100 µM (inactive)	> 100 µM (inactive)	> 100 µM (inactive)	> 100 µM (inactive)	> 100 µM (inactive)
O=[N+]([O-])c1cc(C(F)(F)F)cc([N+](=O)[O-])c1CCl	3.14 µM (inactive)	18.6 µM (inactive)	0.0993 µM (active)	2.13 µM (inactive)	1.31 µM (inactive)	16.1 µM (inactive)	2.14 µM (inactive)	2.32 µM (inactive)	5.78 µM (inactive)	0.328 µM (active)	1.16 µM (inactive)		5.73 µM (inactive)	7.35 µM (inactive)	0.429 µM (active)	8.53 µM (inactive)	3.72 µM (inactive)
CCOC(=O)C1C=C2O[C@@H]3OC4(CCCCC4)O[C@@H]3C2C2C(=O)CCC(=O)[C@@]12C(=O)OC (stereo not given in full)	> 100 µM (inactive)	> 100 µM (inactive)	> 100 µM (inactive)	> 100 µM (inactive)	> 100 µM (inactive)	> 100 µM (inactive)	> 10 µM (inactive)	> 100 µM (inactive)	> 100 µM (inactive)	> 100 µM (inactive)	> 100 µM (inactive)	> 100 µM (inactive)	> 100 µM (inactive)	> 100 µM (inactive)	> 100 µM (inactive)		> 100 µM (inactive)
[O-][n+]1c2cc3c(cc2[n+]([O-])c2c(O)cccc21)CN(CCN1CCOCC1)C3	16.8 µM (inactive)	44.6 µM (inactive)	6.12 µM (inactive)	14.5 µM (inactive)	5.7 µM (inactive)		16 µM (inactive)	12.7 µM (inactive)	7.18 µM (inactive)	5.36 µM (inactive)	18.4 µM (inactive)	20.7 µM (inactive)	17.1 µM (inactive)	73.5 µM (inactive)		27.4 µM (inactive)	23.4 µM (inactive)
CC(=O)O[C@H]1C=CC23OC(=O)[C@]1(C)[C@H]2[C@H](C(=O)O)C12CC(=O)[C@@](CO)(CC[C@H]13)C2	> 100 µM (inactive)		> 100 µM (inactive)	> 100 µM (inactive)	> 100 µM (inactive)	> 100 µM (inactive)	> 100 µM (inactive)	> 100 µM (inactive)	> 100 µM (inactive)	> 100 µM (inactive)	> 100 µM (inactive)	> 100 µM (inactive)	> 100 µM (inactive)	> 100 µM (inactive)	> 100 µM (inactive)	> 100 µM (inactive)	> 100 µM (inactive)
O=C(CC1(O)C(=O)Nc2ccc([N+](=O)[O-])cc21)c1ccc(Br)cc1 (stereo not given)	61 µM (inactive)	23.2 µM (inactive)	47.4 µM (inactive)	> 100 µM (inactive)	18.6 µM (inactive)	> 100 µM (inactive)	> 100 µM (inactive)		> 100 µM (inactive)	19.6 µM (inactive)	35.5 µM (inactive)	> 100 µM (inactive)	25.1 µM (inactive)	44.3 µM (inactive)	> 10 µM (inactive)	32.7 µM (inactive)	69.8 µM (inactive)
O=C1OC(CC(=O)c2ccc(F)cc2)C(Cl)=C1Cl (stereo not given)	18.5 µM (inactive)		29.4 µM (inactive)		24.7 µM (inactive)	32.1 µM (inactive)	18.2 µM (inactive)	27.2 µM (inactive)	21.5 µM (inactive)	18.9 µM (inactive)	34.2 µM (inactive)	22.4 µM (inactive)	49 µM (inactive)	22.3 µM (inactive)	23.3 µM (inactive)	40.2 µM (inactive)	16.9 µM (inactive)
O=C(/C=C/c1ccc(OCCCOc2ccc(/C=C/C(=O)c3ccc(Cl)cc3)cc2)cc1)c1ccc(Cl)cc1	> 100 µM (inactive)		> 100 µM (inactive)	> 100 µM (inactive)	> 100 µM (inactive)	> 100 µM (inactive)	> 100 µM (inactive)	> 100 µM (inactive)	> 100 µM (inactive)	> 100 µM (inactive)	> 100 µM (inactive)	> 100 µM (inactive)	> 100 µM (inactive)	> 100 µM (inactive)	> 100 µM (inactive)	> 100 µM (inactive)	> 100 µM (inactive)
COC(=O)/C=C(C)/C=C/c1c(C)c(C(C)=O)c(C)n1C	> 100 µM (inactive)	> 100 µM (inactive)	> 100 µM (inactive)	> 100 µM (inactive)	49.9 µM (inactive)	> 100 µM (inactive)	> 100 µM (inactive)	> 100 µM (inactive)		51.1 µM (inactive)	57.7 µM (inactive)		> 100 µM (inactive)	> 100 µM (inactive)	> 100 µM (inactive)	> 100 µM (inactive)	> 100 µM (inactive)
CC1=CC(=O)N(c2c(C)cccc2Cl)C(C)N1 (stereo not given)	> 100 µM (inactive)	> 100 µM (inactive)	> 100 µM (inactive)	> 100 µM (inactive)	> 100 µM (inactive)	> 100 µM (inactive)	> 100 µM (inactive)	> 100 µM (inactive)	> 100 µM (inactive)	> 100 µM (inactive)		> 100 µM (inactive)	> 100 µM (inactive)	> 100 µM (inactive)	> 100 µM (inactive)	> 100 µM (inactive)	> 100 µM (inactive)
COC(=O)C12C3C4C1C1C2C3C41C(=O)N(C(C)C)C(C)C (stereo not given)	> 100 µM (inactive)	> 100 µM (inactive)	> 100 µM (inactive)	> 100 µM (inactive)	> 100 µM (inactive)	> 100 µM (inactive)	> 100 µM (inactive)	> 100 µM (inactive)	> 100 µM (inactive)	> 100 µM (inactive)			> 100 µM (inactive)	> 100 µM (inactive)	> 100 µM (inactive)	> 100 µM (inactive)	> 100 µM (inactive)
O=C(/C=C1\Nc2ccccc2C(=O)N1c1ccccc1Cl)c1ccccc1	> 100 µM (inactive)	> 100 µM (inactive)	> 100 µM (inactive)	> 100 µM (inactive)	47 µM (inactive)	> 100 µM (inactive)	64.7 µM (inactive)	> 100 µM (inactive)	> 100 µM (inactive)	> 100 µM (inactive)		> 100 µM (inactive)	> 100 µM (inactive)	> 100 µM (inactive)	> 100 µM (inactive)	> 100 µM (inactive)	> 100 µM (inactive)
Nc1ccn(CCNCCn2cnc3nc(N)[nH]c(=O)c32)c(=O)n1	> 100 µM (inactive)	> 100 µM (inactive)		> 100 µM (inactive)	> 100 µM (inactive)	> 100 µM (inactive)	> 100 µM (inactive)	> 100 µM (inactive)	> 100 µM (inactive)	> 100 µM (inactive)	> 100 µM (inactive)	> 100 µM (inactive)		> 100 µM (inactive)	> 100 µM (inactive)	> 100 µM (inactive)	> 100 µM (inactive)
